According to patent US20230035892A1, “METHODS AND COMPOSITIONS FOR TREATING CANCER” (Flagship Pioneering Innovations V, Inc., priority 2019, published 2023):

Key:
Format in all cases: cell-based
BXPC3 = assay: Proliferation, percent viability normalized to DMSO; conditions: Homo sapiens, BXPC-3
Text: (§1) The GRK2 small molecule antagonist of Formula III-26 was used to evaluate the effect of a small molecule GRK2 antagonist on the proliferation of pancreatic cancer cell lines Miapaca2, Panc1, BXPC3, PAXF1657, PAXF1997 and Capan1. Values represent percent viability normalized to DMSO.

Capan1 = assay: as above; conditions: Homo sapiens, CAPAN-1
Text: as §1

MIAPACA2 = assay: as above; conditions: Homo sapiens, MIA PaCa-2
Text: as §1

PANC1 = assay: as above; conditions: Homo sapiens, PANC-1
Text: as §1

PAXF1657 = assay: as above
Text: as §1

PAXF1997 = assay: as above
Text: as §1

[1] = system: PAXF1657 control empty vector; assay: 7-day CellTiter-Glo anti-proliferative assay; conditions: PAXF1657, sgNTC, pReceiver-empty vector, 5 or 10 point dose curve
Procedure: (§2) Cell lines were seeded into tissue culture treated, white-walled, 96-well plates at a density of 500 cells/well in RPM11640 media supplemented with 10% H.I. FBS and penicillin/streptomycin. Plates were incubated overnight at 37° C., 5% CO2 to allow cells to adhere to the wells. GRK2 small molecule antagonists were added to the cells using a ten-point or five-point dilution series with a final concentration ranging from […] in 0.1% DMSO. At the time of compound addition, a set of plates that were not treated with compounds were collected and cell viability was measured using CellTiter-Glo (Promega). CellTiter-Glo reagent was added to the plates and luminescence was measured using a Biotek Synergy plate reader. The compound treated cells were incubated for 3 days at 37° C., 5% CO2. The media was then aspirated from each well and replaced with fresh media containing GRK2 small molecule antagonists. The compound treated cells were then incubated for another 4 days at 37° C., 5% CO2 and cell viability was assessed at the end of the 7-day compound treatment by CellTiterGlo.

[2] = system: PAXF1657 stably overexpressing GRK2 cDNA; assay: 7-day CellTiter-Glo anti-proliferative assay; conditions: PAXF1657, sgNTC, pReceiver-GRK2, 5 or 10 point dose curve
Procedure: as §2

[3] = 168 h, read-out: Maximum % Growth inhibition relative to DMSO, geometric mean

Cn1c(CNc2cccc(C(=O)NCc3ccccc3C(F)(F)F)c2)nnc1-c1ccncc1 [Compound of Formula III-26]
viability at 0.005 µM (BXPC3; BXPC3, dose 0.005 μM): 106% | viability at 0.014 µM (BXPC3; BXPC3, dose 0.014 μM): 105% | viability at 0.041 µM (BXPC3; BXPC3, dose 0.041 μM): 104% | viability at 0.123 µM (BXPC3; BXPC3, dose 0.123 μM): 104% | viability at 0.37 µM (BXPC3; BXPC3, dose 0.370 μM): 108% | viability at 1.111 µM (BXPC3; BXPC3, dose 1.111 μM): 102% | viability at 3.333 µM (BXPC3; BXPC3, dose 3.333 μM): 91.5% | viability at 10 µM (BXPC3; BXPC3, dose 10.000 μM): 77% | viability at 30 µM (BXPC3; BXPC3, dose 30.000 μM): 75.8% | viability at 0.005 µM (Capan1; Capan1, dose 0.005 μM): 107% | viability at 0.014 µM (Capan1; Capan1, dose 0.014 μM): 108% | viability at 0.041 µM (Capan1; Capan1, dose 0.041 μM): 112% | viability at 0.123 µM (Capan1; Capan1, dose 0.123 μM): 114% | viability at 0.37 µM (Capan1; Capan1, dose 0.370 μM): 112% | viability at 1.111 µM (Capan1; Capan1, dose 1.111 μM): 106% | viability at 3.333 µM (Capan1; Capan1, dose 3.333 μM): 100% | viability at 10 µM (Capan1; Capan1, dose 10.000 μM): 90% | viability at 30 µM (Capan1; Capan1, dose 30.000 μM): 95.4% | viability at 0.005 µM (MIAPACA2; Miapaca2, dose 0.005 μM): 102% | viability at 0.014 µM (MIAPACA2; Miapaca2, dose 0.014 μM): 105% | viability at 0.041 µM (MIAPACA2; Miapaca2, dose 0.041 μM): 108% | viability at 0.123 µM (MIAPACA2; Miapaca2, dose 0.123 μM): 111% | viability at 0.37 µM (MIAPACA2; Miapaca2, dose 0.370 μM): 114% | viability at 1.111 µM (MIAPACA2; Miapaca2, dose 1.111 μM): 99.3% | viability at 3.333 µM (MIAPACA2; Miapaca2, dose 3.333 μM): 86.6% | viability at 10 µM (MIAPACA2; Miapaca2, dose 10.000 μM): 66.1% | viability at 30 µM (MIAPACA2; Miapaca2, dose 30.000 μM): 40% | viability at 0.005 µM (PANC1; Panc1, dose 0.005 μM): 103% | viability at 0.014 µM (PANC1; Panc1, dose 0.014 μM): 112% | viability at 0.041 µM (PANC1; Panc1, dose 0.041 μM): 113% | viability at 0.123 µM (PANC1; Panc1, dose 0.123 μM): 113% | viability at 0.37 µM (PANC1; Panc1, dose 0.370 μM): 113% | viability at 1.111 µM (PANC1; Panc1, dose 1.111 μM): 113% | viability at 3.333 µM (PANC1; Panc1, dose 3.333 μM): 100% | viability at 10 µM (PANC1; Panc1, dose 10.000 μM): 85.2% | viability at 30 µM (PANC1; Panc1, dose 30.000 μM): 86.2% | viability at 0.005 µM (PAXF1657; PAXF1657, dose 0.005 μM): 111% | viability at 0.014 µM (PAXF1657; PAXF1657, dose 0.014 μM): 111% | viability at 0.041 µM (PAXF1657; PAXF1657, dose 0.041 μM): 116% | viability at 0.123 µM (PAXF1657; PAXF1657, dose 0.123 μM): 118% | viability at 0.37 µM (PAXF1657; PAXF1657, dose 0.370 μM): 115% | viability at 1.111 µM (PAXF1657; PAXF1657, dose 1.111 μM): 110% | viability at 3.333 µM (PAXF1657; PAXF1657, dose 3.333 μM): 102% | viability at 10 µM (PAXF1657; PAXF1657, dose 10.000 μM): 88.6% | viability at 30 µM (PAXF1657; PAXF1657, dose 30.000 μM): 69% | viability at 0.005 µM (PAXF1997; PAXF1997, dose 0.005 μM): 111% | viability at 0.014 µM (PAXF1997; PAXF1997, dose 0.014 μM): 111% | viability at 0.041 µM (PAXF1997; PAXF1997, dose 0.041 μM): 112% | viability at 0.123 µM (PAXF1997; PAXF1997, dose 0.123 μM): 114% | viability at 0.37 µM (PAXF1997; PAXF1997, dose 0.370 μM): 118% | viability at 1.111 µM (PAXF1997; PAXF1997, dose 1.111 μM): 110% | viability at 3.333 µM (PAXF1997; PAXF1997, dose 3.333 μM): 104% | viability at 10 µM (PAXF1997; PAXF1997, dose 10.000 μM): 83.7% | viability at 30 µM (PAXF1997; PAXF1997, dose 30.000 μM): 81.4% | Emax [1, 3]: 61% | GI50 ([1]; read-out: GI50, geometric mean): 9.49 µM | Emax [2, 3]: 24.8% | GI50 ([2]; read-out: GI50, geometric mean): > 10 µM
